# Measurements from patent US8153803B2, “Compositions and methods for modulating sirtuin activity” (The General Hospital Corporation, priority 2006, dated 2012).
# What was measured:
# HeLa cells = test: Cell-based SIRT2 inhibition (α-tubulin acetylation, Western blot); set-up: species or system human
# Description: Tubulin and sirtuin Western blot analysis: Samples were separated on 10% polyacrylamide gels and transferred to a 0.45 μm PVDF membrane (Millipore, Bedford Mass.). Membranes were blocked with a 5% milk solution in PBST. Blots were then probed with antibodies to either SIRT2 (Santa Cruz A-5 at 1:100), tubulin (Sigma, St. Louis Mo., B-5-1-2) or acetylated tubulin (Sigma, 6-11B-1), both at 1:5000. Secondary detection was performed using an HRP-conjugated anti-mouse antibody (Sigma) at 1:4000, and exposed using an ECL detection kit (PerkinElmer). […] The following morning, medium was removed and fresh medium containing compound was added to the wells. After 3 hours, medium was removed and cells were washed 3× with PBS. After the final wash, 100 μL of a hypotonic lysis buffer was added to each well, and the cells were lysed at 37° C. for 5 minutes. The lysates were transferred to eppendorf tubes and centrifuged at 16,000×g for 10 minutes at room temperature. The resulting supernatant contained soluble tubulin monomers, while the pellet contained the insoluble microtubule polymers. […] SDS sample buffer was added to all the samples, followed by Western blot analysis.
# α-synuclein aggregates [1] = test: α-Synuclein aggregation phenotype in cells; assay type: cell-based; settings: correlated with functional rescue
# SIRT1 = target: T1, SIRT1 (Homo sapiens, UniProt Q96EB6); test: Fluorescent SIRT enzyme assay (recombinant enzyme, fluorescent peptide substrate); assay type: biochemical; settings: at compound concentrations of 40 μM or higher
# T1 sequence (Q96EB6 1-747): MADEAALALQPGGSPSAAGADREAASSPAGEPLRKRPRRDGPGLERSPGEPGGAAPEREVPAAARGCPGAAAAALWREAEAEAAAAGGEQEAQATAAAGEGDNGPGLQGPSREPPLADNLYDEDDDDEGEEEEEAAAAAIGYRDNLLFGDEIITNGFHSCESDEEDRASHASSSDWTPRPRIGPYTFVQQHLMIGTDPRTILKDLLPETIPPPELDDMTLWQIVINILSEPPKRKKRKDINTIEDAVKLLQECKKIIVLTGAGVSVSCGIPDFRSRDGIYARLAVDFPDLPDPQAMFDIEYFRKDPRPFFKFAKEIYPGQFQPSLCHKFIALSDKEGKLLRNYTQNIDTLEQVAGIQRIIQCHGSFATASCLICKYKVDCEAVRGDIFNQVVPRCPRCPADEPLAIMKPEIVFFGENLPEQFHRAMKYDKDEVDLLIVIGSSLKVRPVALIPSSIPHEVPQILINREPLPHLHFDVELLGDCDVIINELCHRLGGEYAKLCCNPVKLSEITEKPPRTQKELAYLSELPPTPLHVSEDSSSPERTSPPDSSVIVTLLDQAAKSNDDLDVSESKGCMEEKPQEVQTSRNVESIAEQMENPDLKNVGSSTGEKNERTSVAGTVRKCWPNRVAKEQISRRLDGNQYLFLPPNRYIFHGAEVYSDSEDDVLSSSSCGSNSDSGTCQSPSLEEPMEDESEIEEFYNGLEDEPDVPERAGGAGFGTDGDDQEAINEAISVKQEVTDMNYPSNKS
# [2] = system: H4 neuroglioma cells transfected with α-synuclein; test: α-Synuclein toxicity assay (adenylate kinase release, ToxiLight); assay type: cell-based, human; settings: H4 cells overexpressing α-synuclein
# Description: Cell culture and transfection: HeLa cells were cultured in DMEM supplemented with 10% fetal bovine serum (FBS) and 2 mM L-glutamine. Human H4 neuroglioma cells (“H4 cells” HTB-148 from the American Type Culture Collection (ATCC), Manassas, Va., USA) were maintained in OPTI-MEM (Life Technologies, Grand Island, N.Y., USA) supplemented with 10% FBS. H4 cells were passaged 24 hours prior to transfection and plated in 24-well plates. The cells were transfected, using a pcDNA3.1hygro vector (Invitrogen) and […] (Qiagen, Chatsworth, Calif., USA) according to the manufacturer's instructions. Compounds or DMSO were added after the transfection procedure was concluded.
# α-Synuclein toxicity assay: Toxicity was analyzed 24 hours after transfection by measuring the release of adenyate kinase from damaged cells into the culture medium using the ToxiLight™ kit (Cambrex, Walkersville, Md.) according to the manufaturer's protocol.
# [3] = system: H4 neuroglioma cells transfected with α-synuclein; settings: previously identified (WO 05/087217); cited from earlier work
# SIRT2 = target: T2, SIRT2 (Homo sapiens, UniProt Q8IXJ6); test: Fluorescent SIRT enzyme assay (recombinant enzyme, fluorescent peptide substrate); assay type: biochemical
# T2 construct: purchased Biomol (Plymouth Meeting, Pa.)
# T2 sequence (Q8IXJ6 1-389): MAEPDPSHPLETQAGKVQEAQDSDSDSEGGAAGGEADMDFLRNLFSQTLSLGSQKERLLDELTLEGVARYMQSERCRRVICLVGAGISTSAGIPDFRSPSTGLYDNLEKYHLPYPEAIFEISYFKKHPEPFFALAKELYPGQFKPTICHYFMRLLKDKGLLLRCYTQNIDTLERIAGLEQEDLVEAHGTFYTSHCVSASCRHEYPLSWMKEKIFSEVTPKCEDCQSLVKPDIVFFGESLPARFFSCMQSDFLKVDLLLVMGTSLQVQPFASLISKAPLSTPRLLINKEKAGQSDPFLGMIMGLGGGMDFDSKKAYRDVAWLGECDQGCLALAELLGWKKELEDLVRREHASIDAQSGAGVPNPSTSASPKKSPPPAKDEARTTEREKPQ
# α-synuclein aggregates [4] = settings: previously identified (WO 05/087217); cited from earlier work
Structure (SMILES),acetylation of α-tubulin in compound-treated cells (HeLa cells),α-synuclein aggregates / inclusion size (α-synuclein aggregates [1]),inhibition of SIRT1 (SIRT1),rescue of α-synuclein toxicity [2],inhibition of α-synuclein-mediated cellular toxicity [3],"IC50 (SIRT2; recombinant SIRT2, fluorescent peptide substrate, read-out: IC50 against SIRT2)","selectivity for SIRT2 (SIRT2; versus other sirtuins tested (SIRT1, SIRT3))",α-synuclein aggregates / inclusions (α-synuclein aggregates [4])
N#C/C(=C\c1ccc(-c2cc(Cl)ccc2Cl)o1)C(=O)Nc1cccc2ncccc12 [AGK2],increasing the acetylation of α-tubulin,"formation of large inclusions, while reducing number of small aggregates",slightly inhibits,can rescue α-synuclein toxicity,–,–,–,–
"O=C(Nc1cccc([N+](=O)[O-])c1)c1cccc(S(=O)(=O)N2CCCCCC2)c1 [AK-1, 3-(azepane-1-sulfonyl)-N-(3-nitro-phenyl)-benzamide]",–,increased inclusion size,–,prevented some α-synuclein toxicity,–,–,–,–
O=[N+]([O-])c1ccc(Sc2nnc(COc3ccccc3)n2-c2ccccc2)c2cccnc12 [B2],–,–,–,–,inhibits α-synuclein-mediated cellular toxicity,35 µM,selective inhibition of SIRT2,decrease in the number of small α-synuclein aggregates and the formation of large inclusions
